Experimental data published in US8106204B2, “Substituted 2-amino-4-phenyldihydroquinolines, processes for their preparation, pharmaceutical compositions and methods for their use” (Sanofi-Aventis, priority 2006, dated 2012).
Counter-ions that a name gives are not always drawn.

Molecular target: T1, NHE-3 (Homo sapiens, UniProt P48764)
T1 sequence (P48764 26-834): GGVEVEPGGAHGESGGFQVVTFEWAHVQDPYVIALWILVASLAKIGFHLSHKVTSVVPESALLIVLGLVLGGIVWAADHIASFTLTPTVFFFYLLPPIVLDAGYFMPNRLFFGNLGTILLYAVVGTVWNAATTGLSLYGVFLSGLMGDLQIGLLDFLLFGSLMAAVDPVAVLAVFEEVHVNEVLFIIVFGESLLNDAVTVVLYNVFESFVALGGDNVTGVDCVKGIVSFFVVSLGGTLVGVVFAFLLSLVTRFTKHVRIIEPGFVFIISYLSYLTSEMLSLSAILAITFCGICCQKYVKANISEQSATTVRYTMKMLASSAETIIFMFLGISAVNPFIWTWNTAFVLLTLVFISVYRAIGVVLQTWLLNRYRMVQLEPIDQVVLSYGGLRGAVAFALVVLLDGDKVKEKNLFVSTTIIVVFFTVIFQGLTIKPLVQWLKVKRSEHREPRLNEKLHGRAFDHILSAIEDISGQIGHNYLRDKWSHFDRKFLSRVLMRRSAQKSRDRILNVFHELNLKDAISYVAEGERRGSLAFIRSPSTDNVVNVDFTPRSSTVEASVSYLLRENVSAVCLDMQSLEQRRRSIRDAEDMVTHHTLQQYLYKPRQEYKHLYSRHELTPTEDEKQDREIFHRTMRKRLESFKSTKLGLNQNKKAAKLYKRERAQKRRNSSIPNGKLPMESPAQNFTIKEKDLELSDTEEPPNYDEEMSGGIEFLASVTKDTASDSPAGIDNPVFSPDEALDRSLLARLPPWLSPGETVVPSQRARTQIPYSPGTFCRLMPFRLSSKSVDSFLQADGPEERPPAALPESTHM
Assay: Determination of the NHE-inhibitory effect (recovery of intracellular pH after acidification, BCECF fluorescence)
Assay type: cell-based
Settings: pH recovery recorded for three minutes with NHE-3; BCECF-loaded cells
Protocol: Description of Assay: Determination of the NHE-Inhibitory Effect In this assay, the recovery of the intracellular pH (pHj) after an acidification which occurs even under bicarbonate-free conditions with functional NHE was determined. To this end, the pHj was determined using the pH-sensitive fluorescent dye BCECF (Calbiochem, the precursor BCECF-AM was employed). The cells were initially loaded with BCECF. The BCECF fluorescence was determined in a ratio fluorescence spectrometer (Photon Technology International, South Brunswick, N.J., USA) with excitation wavelengths of 505 and 440 nm and an emission wavelength of 535 nm and converted into the pHj using calibration plots. The cells had been incubated in NH4Cl buffer (pH 7.4) for the BCECF loading (NH4Cl buffer: 115 mM NaCl, 20 mM NH4Cl, 5 mM KCl, 1 mM CaCl2, 1 mM MgSO4, 20 mM Hepes, 5 mM glucose, 1 mg/ml BSA; a pH of 7.4 was adjusted with 1 M NaOH). The intracellular acidification was induced by adding 975 μl of an NH4Cl-free buffer (see below) to 25 μl aliquots of the cells incubated in NH4Cl buffer. The subsequent rate of pH recovery was recorded for two minutes with NHE1, five minutes with NHE2 and three minutes with NHE-3. To calculate the inhibitory power of the tested substances, the cells were initially investigated in buffers with which there was complete or absolutely no pH recovery. For complete pH recovery (100%), the cells were incubated in Na^+-containing buffer (133.8 mM NaCl, 4.7 mM KCl, 1.25 mM CaCl2, 1.25 mM MgCl2, 0.97 mM Na2HPO4, 0.23 mM NaH2PO4, 5 mM Hepes, 5 mM glucose, a pH of 7.0 was adjusted with 1 M NaOH). To determine the 0% value, the cells were incubated in an Na^+-free buffer (133.8 mM choline chloride, 4.7 mM KCl, 1.25 mM CaCl2, 1.25 mM MgCl2, 0.97 mM K2HPO4, 0.23 mM KH2PO4, 5 mM Hepes, 5 mM glucose, a pH of 7.0 was adjusted with 1 M NaOH). The substances to be tested were made up in the Na^+-containing buffer. The recovery of the intracellular pH at each tested concentration of a substance was expressed as a percentage of the maximum recovery. The IC50 of the respective substance for the individual NHE subtypes was calculated from the percentages of pH recovery using the Sigma Plot program.

SMILES	IC50
NC1=Nc2ccc(Cl)cc2C(c2ccc(N)cc2)C1 (stereo not shown) [Example 1, 2-Amino-4-(4-aminophenyl)-6-chloro-3,4-dihydroquinoline hydrochloride]	4.39 µM
CCNC1=Nc2ccc(Cl)cc2C(c2ccc(N)cc2)C1 (stereo not shown) [Example 2, 4-(4-Aminophenyl)-6-chloro-2-ethylamino-3,4-dihydroquinoline hydrochloride]	10.9 µM
CCN(CC)C1=Nc2ccc(Cl)cc2C(c2ccc(N)cc2)C1 (stereo not shown) [Example 3, 4-(4-Aminophenyl)-6-chloro-2-diethylamino-3,4-dihydroquinoline hydrochloride]	9.19 µM
CCN(CC)C1=Nc2ccc(Cl)cc2C(c2ccc(NC(=O)NCCN(C)C)cc2)C1 (stereo not shown) [Example 4, N-(2-Dimethylaminoethyl)-N′-4-[(6-chloro-3,4-dihydro-2-diethyl-aminoquinolin-4-yl)phenyl]urea hydrochloride]	13.8 µM
